Assay results reported in patent US4154727A, “Dipeptide derivatives and their production” (Shionogi & Co., Ltd., priority 1974, dated 1979).

Legend:
DS male mice [1] = experiment: Taming activity (inhibition of fighting responses); format: in vivo; conditions: given 60 minutes prior; inhibition of electroshock-induced fighting responses, 5 pairs of mice
Protocol: This test was measured on DS male mice. […] These pairs of mice were selected in the morning and used for drug test in the afternoon. The test compound was administered to both mice of the pairs 60 minutes prior to the experiment. Results were obtained as the mean percentage of inhibition of fighting responses in a group of 5 pairs and shown by ED50 [Tedeschi, et al.: J. Pharmacol Exp. Thev., 125, 28-34 (1959)].

DS male mice [2] = experiment: Rotarod performance activity; format: in vivo; conditions: fall from rod (5 rotations per minute) within less than 2 minutes; 10 mice per dose
Protocol: (3) Rotarod performance activity
This test was measured on DS male mice. The mouse was put on a scraped rod of wood, 3 cm in diameter, turning at the rate of five rotations per minute. The mice that could remain on the rod for three or more minutes in successive trials were selected and placed in a group of 10 mice for each dose. If the mouse fell down from the rod within less than 2 minutes, the test compound was considered to be effective. Results were shown by ED50 [Dunham, et al.: J. Am. Pharm. Assoc., 46, 208 (1957)].

Row | SMILES | Taming activity ED50 (DS male mice [1]) [mg/kg] | Rotarod performance ED50 (DS male mice [2]) [mg/kg]
1 | CN(C(=O)CNC(=O)CN)c1ccc(Cl)cc1C(=O)c1ccccc1Cl.O [Compound No. 2, 2-o-chlorobenzoyl-4-chloro-N-methyl-N^α -glycyl-glycinanilide hydrate] | 3.0 | 
2 | CN(C(=O)CNC(=O)CN)c1ccc(Cl)cc1C(=O)c1ccccc1F.Cl [Compound No. 3, 2-o-fluorobenzoyl-4-chloro-N-methyl-N^α -glycyl-glycinanilide hydrochloride] | 1.6 | 17.0
